Assay results: paper PMC6571133, “Capsazepine prolongation of the duration of lidocaine block of sensory transmission in mice may be mediated by modulation of HCN channel currents” (PeerJ, 2019)

Assays:
mHCN1 (Mouse HCN1) = mHCN1 (Mouse HCN1) (Mus musculus, UniProt O88704); assay: whole-cell patch clamp of Ih in transfected HEK […] cells; type: cell-based
mHCN2 (Mouse HCN2) = biological target: T1, mHCN2 (Mouse HCN2) (Mus musculus, UniProt O88703); assay: as above; type: cell-based
T1 sequence (O88703 1-863): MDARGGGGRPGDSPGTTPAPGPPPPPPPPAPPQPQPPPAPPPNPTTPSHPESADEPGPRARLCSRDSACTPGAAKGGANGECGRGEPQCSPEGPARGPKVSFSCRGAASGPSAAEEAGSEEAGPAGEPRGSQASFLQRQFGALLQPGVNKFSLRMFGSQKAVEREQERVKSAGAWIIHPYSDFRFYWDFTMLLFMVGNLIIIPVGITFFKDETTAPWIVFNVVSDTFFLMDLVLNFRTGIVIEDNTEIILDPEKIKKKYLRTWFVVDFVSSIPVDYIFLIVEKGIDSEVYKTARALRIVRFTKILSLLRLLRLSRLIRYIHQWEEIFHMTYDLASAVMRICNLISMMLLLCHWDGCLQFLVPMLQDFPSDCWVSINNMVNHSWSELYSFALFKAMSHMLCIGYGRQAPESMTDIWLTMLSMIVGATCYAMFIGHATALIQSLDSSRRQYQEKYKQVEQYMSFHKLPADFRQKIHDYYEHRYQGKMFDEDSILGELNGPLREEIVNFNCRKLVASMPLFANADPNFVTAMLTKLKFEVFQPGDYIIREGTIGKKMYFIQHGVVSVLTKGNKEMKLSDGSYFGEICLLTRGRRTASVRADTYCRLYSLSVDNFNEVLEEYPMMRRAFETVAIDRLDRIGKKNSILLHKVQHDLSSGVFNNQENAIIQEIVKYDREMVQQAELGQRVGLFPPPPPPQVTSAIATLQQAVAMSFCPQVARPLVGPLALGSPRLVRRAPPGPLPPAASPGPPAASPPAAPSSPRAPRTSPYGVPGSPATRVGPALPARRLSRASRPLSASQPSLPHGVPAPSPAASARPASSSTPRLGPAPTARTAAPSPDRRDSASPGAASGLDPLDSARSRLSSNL

Chain of mHCN1 (Mouse HCN1) (O88704 whole entry): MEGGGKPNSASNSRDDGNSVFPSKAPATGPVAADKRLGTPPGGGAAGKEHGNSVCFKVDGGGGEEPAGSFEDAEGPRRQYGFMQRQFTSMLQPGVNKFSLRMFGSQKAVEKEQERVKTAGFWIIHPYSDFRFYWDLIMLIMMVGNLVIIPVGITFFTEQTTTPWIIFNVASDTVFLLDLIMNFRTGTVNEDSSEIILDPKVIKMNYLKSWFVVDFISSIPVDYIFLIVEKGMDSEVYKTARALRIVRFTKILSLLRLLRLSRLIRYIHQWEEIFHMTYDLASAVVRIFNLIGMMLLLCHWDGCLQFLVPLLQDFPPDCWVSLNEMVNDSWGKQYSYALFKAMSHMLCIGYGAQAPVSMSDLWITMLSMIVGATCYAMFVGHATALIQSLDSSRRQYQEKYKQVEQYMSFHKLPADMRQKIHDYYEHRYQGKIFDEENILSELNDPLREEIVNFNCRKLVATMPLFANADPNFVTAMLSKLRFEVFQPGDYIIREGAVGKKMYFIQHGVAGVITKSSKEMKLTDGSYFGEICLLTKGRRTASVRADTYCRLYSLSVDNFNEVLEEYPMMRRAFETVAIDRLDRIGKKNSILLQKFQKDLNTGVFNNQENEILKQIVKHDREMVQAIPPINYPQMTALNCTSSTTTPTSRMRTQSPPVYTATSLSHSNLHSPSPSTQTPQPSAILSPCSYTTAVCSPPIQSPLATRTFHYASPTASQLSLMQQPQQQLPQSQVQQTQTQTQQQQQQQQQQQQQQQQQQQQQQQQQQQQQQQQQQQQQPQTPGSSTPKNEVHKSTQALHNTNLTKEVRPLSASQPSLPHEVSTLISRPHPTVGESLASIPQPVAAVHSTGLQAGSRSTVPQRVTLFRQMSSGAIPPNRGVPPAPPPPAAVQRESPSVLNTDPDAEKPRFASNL

Oc1cc2c(cc1O)CN(C(=S)NCCc1ccc(Cl)cc1)CCC2 [CPZ, Capsazepine]
IC50 (mHCN1 (Mouse HCN1)): 8.2 ± 0.3 µM
IC50 (mHCN2 (Mouse HCN2)): 9.6 ± 0.4 µM
